In article PMC4464424, “Peptide–polymer ligands for a tandem WW-domain, an adaptive multivalent protein–protein interaction: lessons on the thermodynamic fitness of flexible ligands” (Beilstein Journal of Organic Chemistry, 2015):
Read-outs that look alike come from different tables or passages of the source. Ends that are not written are not given here.

T1: tandem WW domain of FBP21 (Homo sapiens, UniProt O75554)
T1 construct: multivalent peptide-polymer conjugates and the tandem WW domain of protein FBP21 determined at 8 °C by ITC measurements; made in house; host or cells: E. coli BL21 (DE3)
T1 sequence (O75554 122-196 limits assumed): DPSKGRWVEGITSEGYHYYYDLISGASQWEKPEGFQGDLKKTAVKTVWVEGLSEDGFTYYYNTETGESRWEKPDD

T2: Dex-2 (also: 6 peptides conjugated to 10 kDa dextran)
T2 chain: CGPPPRGPPPR-NH2

T3: Dex-3 (also: 8 peptides conjugated to 50 kDa dextran)
T3 chain: CGPPPRGPPPR-NH2

T4: Dex-1 (also: 3 peptides conjugated to 10 kDa dextran)
T4 chain: CGPPPRGPPPR-NH2

T5: hPG-1 (also: 3 peptides conjugated to hyperbranched polyglycerol)
T5 chain: CGPPPRGPPPR-NH2

T6: pHPMA-2 (also: 9 peptides conjugated to pHPMA polymer)
T6 chain: CGPPPRGPPPR-NH2

T7: P1
T7 chain: GPPPRGPPPR-NH2

T8: pHPMA-1 (also: 6 peptides conjugated to pHPMA polymer)
T8 chain: CGPPPRGPPPR-NH2


Key:
[1] = biological target: T1, tandem WW domain of FBP21; assay: Isothermal titration calorimetry (ITC) of peptide–polymer conjugates with tandem WW domain; assay type: binding; details: for Binding stoichiometry (peptide ligands per protein receptor): ratio of peptide ligand molecules relative to each protein binding site
Description: Binding studies with peptide–polymer conjugates were conducted employing isothermal titration calorimetry (ITC). This method enables the determination of the binding affinity of the multivalent ligands and elucidates the composition of the free energy of binding from the enthalpic and entropic contributions. In addition, the method can be used to determine the stoichiometry of the formed protein–ligand complex indicating the ratio of peptide ligand molecules relative to each protein binding site thereby giving valuable insights into the multivalency of binding and/or the degree of crosslinking. Thus, the method enables the identification of polymer–protein aggregates containing several polymers and proteins in a complex. No precipitation of the multicomponent aggregates that interfered with ITC measurements was observed during the experiments.
ITC-analysis (Figure 2) of the binding of multivalent peptide–polymer conjugates yielded KD values either corresponding to the polymer concentration or relative to the overall peptide concentration (N*KD). […] Binding in all cases was driven mainly by enthalpy, which clearly outweighed the observed entropy loss. In the seven peptide–polymer conjugates investigated, increased loading density of ligands led consistently to increased affinity of the multivalent ligand (Table 1). The most significant difference between dextran and the two other polymer carriers was the stoichiometry of the formed peptide-polymer–protein complex. […] Corresponding to the observed colloidal suspension/dispersion the stoichiometry of peptide ligands per protein receptor resulting from the ITC experiments was >2 for each of either pHPMA or hPG-based material, most pronounced for pHPMA with n = 2.6–2.8.
Figure 2 Representative ITC-measurements conducted at 8 °C with the peptide–polymer conjugates A) pHPMA-1 and B) Dex-2 showing an increase in affinity for the interaction of Dex-2 with the FBP21 tandem WW domains. […]
Isothermal Titration Calorimetry (ITC) Experiments
All samples for ITC were prepared with the phosphate buffer used for protein purification. A 10 mM stock solution of the peptide polymer conjugate in PBS was prepared and adjusted to pH 7.4 with a 50 mM NaOH solution in PBS. Aliquots of the stock solution were diluted to the final concentration of 1.5-2 mM with PBS.
Proteins were expressed as His- or GST-tagged fusion constructs in E.coli BL21 (DE3), purified by the corresponding affinity matrices, thrombin cleaved and applied to a gel filtration column (superdex-75) at 50 mM phosphate, 150 mM NaCl, 1 mM EDTA, pH 6.5 or 1xPBS, 1 mM EDTA, pH 7.4. Proteins were concentrated by Cen-trifugal Filter Units (regenerated cellulose, 3 kDa cut-off, Millipore) if necessary.
2 µl aliquots of peptide-polymer conjugates were titrated into a 50-70 µM protein solution inside the calorimeter cell (200 µl) while the reaction mixture was continuously stirred at 1000 rpm. Ligand concentration in the titration syringe was typically in 20-time excess corresponding to protein. Time intervals between injections were adjusted to 240 s which was sufficient for the heat signal to return to baseline level. In control experiments peptide-polymer conjugates were injected into […]
The heats of dilution were subtracted from the heats determined in the corresponding protein-ligand binding experiments. Automated baseline adjustment and peak integration were accomplished with the public-domain software NITPIC [5]. Estimation of best-fit parameter values by nonlinear least-squares fitting and calculation of 95% confidence intervals were performed with the public-domain software SEDPHAT [6].
Polymer-attached peptides were considered as monovalent ligands, and the tandem WW protein as receptor molecule with two similar independent binding sites. Binding was analysed in terms of simple hetero-association model. Corresponded calculation gives the microscopic binding constants that characterise the binding affinity of […]

[2] = biological target: T1, tandem WW domain of FBP21; details: peptide alone, read-out: dissociation constant (KD); cited from earlier work
From the text: ITC-analysis (Figure 2) of the binding of multivalent peptide–polymer conjugates yielded KD values either corresponding to the polymer concentration or relative to the overall peptide concentration (N*KD).

Dex-2 = biological target: T2, Dex-2; assay: ITC
Dex-3 = biological target: T3, Dex-3; assay: ITC
Dex-1 = biological target: T4, Dex-1; assay: ITC
hPG-1 = biological target: T5, hPG-1; assay: ITC
pHPMA-2 = biological target: T6, pHPMA-2; assay: ITC
P1 = biological target: T7, P1; assay: ITC
pHPMA-1 = biological target: T8, pHPMA-1; assay: ITC
[3] = ITC at 8 °C, PBS pH 7.4, 2 µl aliquots of conjugate titrated into 50-70 µM protein, KD related to polymer concentration, 1:1 binding model, read-out: KD (binding affinities of peptide–polymer conjugates)

| Kd [1, 3] [µM] | Binding stoichiometry (peptide ligands per protein receptor) ([1]; ITC at 8 °C) | Molecule | other results |
| --- | --- | --- | --- |
| 7 ± 1.2 | 1.8 | CGPPPRGPPPR [Dex-1] | – |
| – | 1.4 | CGPPPRGPPPR [Dex-2] | – |
| – | 1.3 | CGPPPRGPPPR [Dex-3] | – |
| – | 2.3 | CGPPPRGPPPR [hPG-1, hyperbranched polyglycerol modified with maleimido groups, coupled with 3 copies of P2] | – |
| 5 ± 1.3 | 2.4 | CGPPPRGPPPR [hPG-2, hyperbranched polyglycerol modified with maleimido groups, coupled with 4 copies of P2] | – |
| 5 ± 0.8 | 2.6 | CGPPPRGPPPR [pHPMA-1, poly(N-(2-hydroxypropyl)methacrylamide) NCL-polymer conjugated with 6 copies of P2 by native chemical ligation] | – |
| – | 2.8 | CGPPPRGPPPR [pHPMA-2, poly(N-(2-hydroxypropyl)methacrylamide) NCL-polymer conjugated with 9 copies of P2 by native chemical ligation] | – |
| – | – | GPPPRGPPPR-NH2 [P1] | Kd ([1]; monovalent ligand, tandem WW-domain of FBP21, as stated in the abstract, read-out: KD): > 1000 µM; Kd [2]: > 1000 µM |
| – | – | FBP21 tandem WW (protein) DPSKGRWVEGITSEGYHYYYDLISGASQWEKPEGFQGDLKKTAVKTVWVEGLSEDGFTYYYNTETGESRWEKPDD | Kd (Dex-2): 1.2 µM; Kd (Dex-3): 1.6 µM; Kd (Dex-1): 7 µM; Kd (hPG-1): 6.3 µM; Kd (pHPMA-2): 3.3 µM; Kd (P1): > 1000 µM; Kd (pHPMA-1): 5 µM |

| Molecule | Kd [1, 3] [µM] | Binding stoichiometry (peptide ligands per protein receptor) ([1]; ITC at 8 °C) | other results |
| --- | --- | --- | --- |
| Ac-GPPPRGPPPR-NH2 [Ac-P1] | > 1000 | – | Kd ([1]; ITC at 8 °C, PBS pH 7.4, related to overall peptide concentration, N = number of ligands per polymer, read-out: Rel. KD = N*KD (binding affinity related to overall peptide concentration)): > 1000 µM |
